Laboratory results reported in PMC6941110, “Mutation of Aspartate 238 in FAD Synthase Isoform 6 Increases the Specific Activity by Weakening the FAD Binding” (International Journal of Molecular Sciences, 2019).
Read-outs that look alike come from different tables or passages of the source. Each block holds one compound with its values, some of them ahead of it.

Columns and labels:
[1] = molecular target: T1, hFADS6 (human FAD synthase isoform 6) (Homo sapiens, UniProt Q8NFF5); test: biochemical; design: Stopped-flow flavin fluorescence, FMN binding with 250 uM ATP; kon/koff from kobs1 versus flavin concentration, 25 °C, pH 7.0; details: with 250 uM ATP
T1 construct: gene FLAD1; 320-residue isoform 6, FADSy domain only, lacks N-terminal FADHy domain; monomer
Protocol: (§1) Pre-steady-state kinetic experiments were performed using stopped-flow spectroscopy on an Applied Photophysics SX17.MV spectrophotometer using the Pro-Data SX software (Applied Photophysics Ltd. Leatherhead, Surrey, UK). The fluorescence of flavins was measured in a continuous assay with an excitation wavelength of 445 nm, while the emission was recovered using a >530 nm cut-off filter and the [compound left out] was set to 350 V. Then, 100 nM hFADS6 samples were mixed with samples that contained increasing concentrations of FMN or FAD (which varied in the range 0.025–1 μM), in the absence and in the presence of saturating concentrations of their respective co-substrates ATP or PPi (250 µM). All the indicated concentrations are final ones in the stopped-flow observation cell. Measurements were carried out at 25 °C in 50 mM HEPES/NaOH, 10 mM MgCl2, pH 7.0, 5 mM β-mercaptoethanol. At least three reproducible kinetic traces of changes in fluorescence were recorded for each condition and fitted to exponential equations (usually one or two exponentials were used) (2) y=∑Aie^−kobs,it where Ai and kobs,i represent the amplitude and the observed rate constant, respectively, for each of the processes (i) that contribute to the overall time-dependent fluorescence change for each experimental condition. […] In mixtures containing substrates of the forward reaction, ATP and FMN, the relevant decrease in the flavin fluorescence is indicative of internalization of the isoalloxazine or FMN transformation into FAD. These observations also agree with ATP binding to the protein prior to FMN in the bi-bi ordered kinetic mechanism reported for hFADSs. Nonetheless, features for this fluorescence decay also differ between WT and D238A hFADSs (Figure 8a). […] The first exponential decay has observed rate constants (kobs1) in the low seconds range which depend linearly on the FMN concentration, while its amplitude is concentration independent (Supplementary Figure S3a,b). kobs2 for the second exponential decay indicate a slower process nearly FMN concentration independent, with amplitude increasing with FMN concentration (Supplementary Figure S3a,b). […] The derived Kd^FMN, 0.094 ± 0.004 µM, agrees well with the above derived Km^FMN for WT hFADS6. […] Finally, the continuous and linear flavin fluorescence decay established after the exponential processes fits well with the settlement of the catalytic steady-state transformation of FMN into FAD, showing, in addition, rates in the ranges of Vmax and kcat. […] Nonetheless, fluorescence decay related to FMN transformation into FAD follows similar traits to the WT ones (Fig  Figure 8 Dissection of the kinetics of the substrates binding process from the catalytic reaction by stopped-flow spectrophotometry. Normalized kinetic traces for the flavin fluorescence evolution upon mixing the protein with substrates for the (a) forward (ATP + FMN) and (b) reverse (PPi + FAD) reactions. Traces for WT and D238A hFADS are shown in colored grey and red scales as a function of the flavin given concentrations. Normalized signals regarding the fluorescence of the forward reaction at maximum FMN concentration are shown. Kinetic traces were obtained at 25 °C in mixtures containing 100 nM of protein and 250 µM of either ATP (a) or PPi (b) in 50 mM HEPES/NaOH, 10 mM MgCl2, pH 7.0, 5 mM β-mercaptoethanol. All concentrations are final after mixing.

[2] = molecular target: T2, hFADS6 (human FAD synthase isoform 6) (Homo sapiens, UniProt Q8NFF5, D505A); test: biochemical; design: Stopped-flow flavin fluorescence, FMN binding with 250 uM ATP; kon/koff from kobs1 versus flavin concentration, 25 °C, pH 7.0; details: error at least 30%, with 250 uM ATP
T2 construct: gene FLAD1; 320-residue isoform 6, FADSy domain only, lacks N-terminal FADHy domain; monomer
Protocol: as §1

[3] = molecular target: T1, hFADS6 (human FAD synthase isoform 6); test: stopped-flow flavin fluorescence, koff/kon; assay type: binding
[4] = molecular target: T2, hFADS6 (human FAD synthase isoform 6); test: inhibition of FADS activity; assay type: biochemical; details: inhibitor
[5] = molecular target: T2, hFADS6 (human FAD synthase isoform 6); test: stopped-flow flavin fluorescence, koff/kon; assay type: binding
Source text: stopped-flow flavin fluorescence, koff/kon on hFADS6 (human FAD synthase isoform 6) | obtained values are again indicative of the mutant binding FAD slower and weaker than the WT

[6] = molecular target: T1, hFADS6 (human FAD synthase isoform 6); test: biochemical; design: Stopped-flow flavin fluorescence, FAD binding with 250 uM PPi; kon/koff from kobs1 versus flavin concentration, 25 °C, pH 7.0; details: with 250 uM PPi
Protocol: (§2) Pre-steady-state kinetic experiments were performed using stopped-flow spectroscopy on an Applied Photophysics SX17.MV spectrophotometer using the Pro-Data SX software (Applied Photophysics Ltd. Leatherhead, Surrey, UK). The fluorescence of flavins was measured in a continuous assay with an excitation wavelength of 445 nm, while the emission was recovered using a >530 nm cut-off filter and the [compound left out] was set to 350 V. Then, 100 nM hFADS6 samples were mixed with samples that contained increasing concentrations of FMN or FAD (which varied in the range 0.025–1 μM), in the absence and in the presence of saturating concentrations of their respective co-substrates ATP or PPi (250 µM). All the indicated concentrations are final ones in the stopped-flow observation cell. Measurements were carried out at 25 °C in 50 mM HEPES/NaOH, 10 mM MgCl2, pH 7.0, 5 mM β-mercaptoethanol. At least three reproducible kinetic traces of changes in fluorescence were recorded for each condition and fitted to exponential equations (usually one or two exponentials were used) (2) y=∑Aie^−kobs,it where Ai and kobs,i represent the amplitude and the observed rate constant, respectively, for each of the processes (i) that contribute to the overall time-dependent fluorescence change for each experimental condition. […] When similarly evaluating the reverse reaction, kinetic traces for both WT and the D238A mutant show an initial fluorescence exponential decay of small amplitude that is followed by a linear increase of the signal (Figure 8b). We again deduce the kinetics for binding of FAD from the exponential decay, while rates for the subsequent linear fluorescence increase relate well to steady-state kinetic parameters for the transformation of FAD into FMN. Although the small amplitudes for FAD binding make it difficult to accurately determine kobs values, both parameters show a dependence on the substrate concentration (Supplementary Figure S3a,b). […] Normalized kinetic traces for the flavin fluorescence evolution upon mixing the protein with substrates for the (a) forward (ATP + FMN) and (b) reverse (PPi + FAD) reactions. Traces for WT and D238A hFADS are shown in colored grey and red scales as a function of the flavin given concentrations. Normalized signals regarding the fluorescence of the forward reaction at maximum FMN concentration are shown. Kinetic traces were obtained at 25 °C in mixtures containing 100 nM of protein and 250 µM of either ATP (a) or PPi (b) in 50 mM HEPES/NaOH, 10 mM MgCl2, pH 7.0, 5 mM β-mercaptoethanol. All concentrations are final after mixing.

[7] = molecular target: T2, hFADS6 (human FAD synthase isoform 6); test: biochemical; design: Stopped-flow flavin fluorescence, FAD binding with 250 uM PPi; kon/koff from kobs1 versus flavin concentration, 25 °C, pH 7.0; details: error at least 30%, with 250 uM PPi
Protocol: as §2

T1 sequence (Q8NFF5 268-587): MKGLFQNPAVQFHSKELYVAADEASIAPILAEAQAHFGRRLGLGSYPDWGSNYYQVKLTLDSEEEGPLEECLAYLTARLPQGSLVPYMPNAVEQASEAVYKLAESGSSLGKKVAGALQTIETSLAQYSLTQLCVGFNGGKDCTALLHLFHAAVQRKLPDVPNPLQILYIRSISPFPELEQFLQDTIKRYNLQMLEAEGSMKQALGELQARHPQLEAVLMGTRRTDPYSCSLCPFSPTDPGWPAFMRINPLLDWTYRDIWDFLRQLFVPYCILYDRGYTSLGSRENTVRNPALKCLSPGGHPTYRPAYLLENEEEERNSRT
T2 sequence (Q8NFF5 268-587 D505A): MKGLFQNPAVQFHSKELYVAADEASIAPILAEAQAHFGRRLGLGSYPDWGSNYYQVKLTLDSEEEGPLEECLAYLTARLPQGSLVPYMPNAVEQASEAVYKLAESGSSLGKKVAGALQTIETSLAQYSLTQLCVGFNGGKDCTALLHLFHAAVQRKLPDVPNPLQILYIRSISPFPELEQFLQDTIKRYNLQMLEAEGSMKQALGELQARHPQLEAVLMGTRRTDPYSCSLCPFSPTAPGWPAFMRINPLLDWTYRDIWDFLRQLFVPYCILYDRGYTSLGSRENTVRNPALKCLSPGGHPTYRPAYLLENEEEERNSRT

- koff ([1]; read-out: koff (FMN binding)): 0.32 ± 0.01 s⁻¹
- kon ([1]; read-out: kon (FMN binding)): 3.4e+06 ± 100000 M⁻¹ s⁻¹
- Kd ([2]; koff/kon, read-out: Kd FMN): > 0.18 µM
- koff ([2]; read-out: koff (FMN binding)): 0.09 s⁻¹
- kon ([2]; read-out: kon (FMN binding)): 550000 M⁻¹ s⁻¹
- Kd ([3]; read-out: Kd^FMN): 0.094 ± 0.004 µM
Compound: Cc1cc2nc3c(=O)[nH]c(=O)nc-3n(C[C@H](O)[C@H](O)[C@H](O)COP(=O)(O)O)c2cc1C [FMN]

Compound: Nc1nc2c(ncn2[C@@H]2O[C@H](COP(=O)(O)OP(=O)(O)OP(=O)(O)O)[C@@H](O)[C@H]2O)c(=O)[nH]1 [GTP]
- inhibition of FADS activity [4]: The D238A-hFADS6 was inhibited by GTP and by NADH

- Kd [5]: > 0.3 µM
- koff ([6]; read-out: koff (FAD binding)): 0.81 ± 0.05 s⁻¹
- kon ([6]; read-out: kon (FAD binding)): 4.5e+06 ± 600000 M⁻¹ s⁻¹
- koff ([7]; read-out: koff (FAD binding)): 0.35 s⁻¹
- kon ([7]; read-out: kon (FAD binding)): 1.5e+06 M⁻¹ s⁻¹
- Kd ([3]; read-out: Kd): 0.18 ± 0.04 µM
Compound: Cc1cc2nc3c(=O)[nH]c(=O)nc-3n(C[C@H](O)[C@H](O)[C@H](O)COP(=O)(O)OP(=O)(O)OC[C@H]3O[C@@H](n4cnc5c(N)ncnc54)[C@H](O)[C@@H]3O)c2cc1C [FAD]

Compound: NC(=O)C1=CN([C@@H]2O[C@H](COP(=O)(O)OP(=O)(O)OC[C@H]3O[C@@H](n4cnc5c(N)ncnc54)[C@H](O)[C@@H]3O)[C@@H](O)[C@H]2O)C=CC1 [NADH]
- inhibition of FADS activity [4]: The D238A-hFADS6 was inhibited by GTP and by NADH
